PMC10049354, “Anti-Inflammatory Effects and Photo- and Neuro-Protective Properties of BIO203, a New Amide Conjugate of Norbixin, in Development for the Treatment of Age-Related Macular Degeneration (AMD)” (International Journal of Molecular Sciences, 2023)

Key:
[1] = system: AP-1; test: AP-1 transactivation assay induced by A2E; type: cell-based, pig; conditions: compound 20 μM; A2E 20 μM
Procedure: Transactivation assays were performed as previously described. Briefly, RPE cells were plated in DMEM 2% FCS at a density of 6 × 10^4 cells/cm^2. The next day transfections using the Cignal Reporter Assay Kits for PPAR, RXR, AP-1, and NF-κB were performed with Lipofectamine and Plus Reagent in serum-free medium. Three hours after the transfection, A2E and/or BIO203, both at 20 μM, were added to the culture medium for 24 h. Luciferase activity was measured using the Dual-Luciferase Reporter Assay System and with a luminometer (Infinite M1000 from Tecan, Mannedorf, Switzerland). At least 3 independent transfections were performed in triplicate for each condition.

[2] = system: IL-6; test: IL-6 mRNA expression induced by A2E (quantitative RT-PCR); type: cell-based, pig
Procedure: (§1) RPE cells were obtained from pig eyes, as previously described. RPE cells were seeded on a 96-well plate at a density of 1.5 × 10^5 cells/cm^2 in DMEM 2% FCS. BIO201, BIO203, or its pure enantiomers were added in increasing concentrations to the culture medium 48 h before illumination. A2E was added to the medium at a final concentration of 30 μM, and 19 h later, blue-light illumination was performed for 50 min using a 96 blue-led device (Durand, St Clair de la Tour, France) emitting at 470 nm (1440 mcd, 8.6 mA). Just before illumination, the culture medium was replaced by a modified DMEM without any photosensitizer and with 2% FCS. Twenty-four hours after blue-light irradiation, all cell nuclei were stained with Hoechst 33342, and nuclei of dead cells with ethidium homodimer 2, fixed with paraformaldehyde (4% in PBS, 10 min) and 9 pictures per well were captured using a fluorescence microscope (Nikon TiE) equipped with a CoolSNAP HQ2 camera and driven by Metamorph Premier On-Line program. Quantification of live cells was performed using Metamorph Premier Off-Line and a homemade program by subtraction of dead cells from all cells. For cytokines mRNA analysis, RPE cells were seeded in 24-well plates and left untreated or treated with A2E or BIO203 alone or A2E plus BIO203. […]

[3] = system: IL-8; test: IL-8 mRNA expression induced by A2E (quantitative RT-PCR); type: cell-based, pig; conditions: BIO203 20 mM (so in the source); A2E 20 μM; porcine RPE cells; p < 0.001
Procedure: as §1

[4] = BIO203 in plasma and eyes of mice after 6 months of BIO203-containing pellets; type: in vivo
Procedure: A custom rodent diet was formulated and irradiated (25 kGy) by Envigo RMS SARL (Gannat, France). Low dose (LD)-BIO203 (50 μg/g) and high dose (HD)-BIO203 (500 μg/g) were incorporated into Teklad Custom Research Diet 2016© pellets. The pellets were stored at −20 °C until use and were administered ad libitum as the standard Teklad Global Rodent Diet 2016© used for the control group. The concentration of BIO203 in the customized pellets at the end of each batch was determined by HPLC MS/MS. The mean concentration was 46 μg/g ± 3.5 μg/g of pellet for the LD and 464 μg/g ± 24.3 μg/g of pellet for the HD. We calculated that in the LD group, male mice weighing 31.63 g after 2 months of complementation consumed 4.16 g of pellets, and in the HD group, male mice weighing 34.11 g after 2 months of complementation consumed 4.11 g of pellets every day, which correspond to a daily dose of 6.04 ± 0.46 mg/kg for the LD-BIO203 pellets and 55.91 ± 2.93 mg/kg for the HD-BIO203 pellets.
To test the preventive/curative action of oral administration of BIO203 against retinal neurodegeneration, a total of 27 Pigmented Abca4^−/− Rdh8^−/− mice carrying the Rpe65-Leu450 mutation and the rd8 mutation in the Crb1 gene from Case Western Reserve University of eleven to twelve months of age were used. Three groups of 9 males received control chow (Teklad Custom Research Diet 2016© pellets) or chow containing LD-BIO203 or HD-BIO203 orally for 6 months. After 6 months of complementation, ERG was measured in both eyes. In the control group, two mice died during the period of complementation and one mouse during ERG measurement. In the HD-BIO203 group, one mouse died before the end of complementation, and 3 mice died just after anesthesia. […] In each group, half of the eyes were removed for A2E and BIO203 measurements, and half of the eyes were used for histological analyses and photoreceptor layer quantification.
Analysis was performed on an LC 1260 System coupled with Mass Spectrometer QQQ-6420 with DAD (Agilent Technologies). […] BIO203 and its isomers were monitored by a mass spectrometer, in positive MRM mode, with the following transitions, respectively, 381.1 -> 144.9 and 478.1 -> 362.9. For quantification of BIO201 and BIO203, calibration curves were prepared under the same conditions as the sample matrix, with various amounts of BIO201 or BIO203 (25 to 10,000 ng/mL in plasma and 5 to 500 ng/mL for eyes).
For determination of norbixin or BIO203 concentrations in plasma, aliquots of plasma samples (25 μL) and internal standard (retinoic acid at 10 µg/mL) were distributed in a 96-well microtiter plate and precipitated with methanol (100 μL). […] Under these conditions, with 5 μL injections, the limit of quantification (LOQ) was 25 ng/mL (0.33 pmol for BIO201 and 0.26 pmol for BIO203). […]

COC1CCCN(C(=O)/C=C/C(C)=C/C=C/C(C)=C/C=C/C=C(C)/C=C/C=C(C)\C=C\C(=O)O)C1 (centres unmarked) [BIO203]
inhibition of AP1 transactivation induced by A2E [1]: inhibited | change of IL-6 mRNA expression induced by A2E ([2]; BIO203 20 mM (so in the source), A2E 20 μM, porcine RPE cells, p < 0.001): −104.8% | effect on IL-6 expression on its own (without A2E) ([2]; BIO203 alone, not statistically significant): slightly inhibited | change of IL-8 mRNA expression induced by A2E [3]: −86.8% | BIO203 in the eyes ([4]; HD pellets (500 μg/g)): not detected | BIO203 in the plasma ([4]; HD pellets (500 μg/g)): detected | BIO203 in the eyes ([4]; LD pellets (50 μg/g)): not detected | BIO203 in the plasma ([4]; LD pellets (50 μg/g)): absence of BIO203 plasmatic exposure
